Legend:
Format in all cases: functional
[1] = Growth inhibition of human NCI-ADR-RES cells assessed as cell growth at 5X10'-6 M after 48 hrs by sulforhodamine B assay; conditions: read-out: Activity
SK-OV-3 [2] = test: Growth inhibition of human SKOV3 cells assessed as cell growth at 3X10'-7 M after 48 hrs by sulforhodamine B assay; conditions: SK-OV-3, 48 h, read-out: Activity
LOX IMVI [3] = test: Growth inhibition of human LOXIMVI cells assessed as cell growth at 3X10'-7 M after 48 hrs by sulforhodamine B assay; conditions: read-out: Activity
KM12 = test: Growth inhibition of human KM12 cells assessed as cell growth at 3X10'-7 M after 48 hrs by sulforhodamine B assay; conditions: KM12, 48 h, read-out: Activity
SR = test: Growth inhibition of human SR cells assessed as cell growth at 3X10'-7 M after 48 hrs by sulforhodamine B assay; conditions: read-out: Activity
CCRF-CEM [4] = test: Growth inhibition of human CCRF-CEM cells assessed as cell growth at 3X10'-7 M after 48 hrs by sulforhodamine B assay; conditions: read-out: Activity
T47D = test: Growth inhibition of human T47D cells assessed as cell growth at 3X10'-8 M after 48 hrs by sulforhodamine B assay; conditions: read-out: Activity
MDA-MB-468 = test: Growth inhibition of human MDA-MB-468 cells assessed as cell growth at 3X10'-5 M after 48 hrs by sulforhodamine B assay; conditions: MDA-MB-468, 48 h, read-out: Activity
OVCAR-5 = test: Growth inhibition of human OVCAR5 cells assessed as cell growth at 3X10'-8 M after 48 hrs by sulforhodamine B assay; conditions: OVCAR-5, 48 h, read-out: Activity
SW-620 = test: Growth inhibition of human SW620 cells assessed as cell growth at 3X10'-8 M after 48 hrs by sulforhodamine B assay; conditions: SW-620, 48 h, read-out: Activity
NCI-H522 = test: Growth inhibition of human NCI-H522 cells assessed as cell growth at 3X10'-8 M after 48 hrs by sulforhodamine B assay; conditions: NCI-H522, 48 h, read-out: Activity
RPMI-8226 = test: Growth inhibition of human RPMI8226 cells assessed as cell growth at 3X10'-8 M after 48 hrs by sulforhodamine B assay; conditions: RPMI-8226, 48 h, read-out: Activity
CCRF-CEM [5] = test: Growth inhibition of human CCRF-CEM cells assessed as cell growth at 3X10'-8 M after 48 hrs by sulforhodamine B assay; conditions: read-out: Activity
CAKI-1 [6] = test: Growth inhibition of human CAKI-1 cells assessed as cell growth at 3X10'-5 M after 48 hrs by sulforhodamine B assay; conditions: CAKI-1, 48 h, read-out: Activity
SK-OV-3 [7] = test: Growth inhibition of human SKOV3 cells assessed as cell growth at 3X10'-5 M after 48 hrs by sulforhodamine B assay; conditions: SK-OV-3, 48 h, read-out: Activity
MCF7 [8] = test: Growth inhibition of human MCF7 cells assessed as cell growth at 3X10'-9 M after 48 hrs by sulforhodamine B assay; conditions: MCF7, 48 h, read-out: Activity
MDA-MB-435 = test: Growth inhibition of human MDA-MB-435 cells assessed as cell growth at 3X10'-5 M after 48 hrs by sulforhodamine B assay; conditions: MDA-MB-435, 48 h, read-out: Activity
Malme-3M = test: Growth inhibition of human MALME-3M cells assessed as cell growth at 3X10'-5 M after 48 hrs by sulforhodamine B assay; conditions: read-out: Activity
LOX IMVI [9] = test: Growth inhibition of human LOXIMVI cells assessed as cell growth at 3X10'-5 M after 48 hrs by sulforhodamine B assay; conditions: read-out: Activity
SF-539 [10] = test: Growth inhibition of human SF539 cells assessed as cell growth at 3X10'-5 M after 48 hrs by sulforhodamine B assay; conditions: SF-539, 48 h, read-out: Activity
BT-549 = test: Growth inhibition of human BT549 cells assessed as cell growth at 3X10'-6 M after 48 hrs by sulforhodamine B assay; conditions: BT-549, 48 h, read-out: Activity
MCF7 [11] = test: Growth inhibition of human MCF7 cells assessed as cell growth at 3X10'-6 M after 48 hrs by sulforhodamine B assay; conditions: MCF7, 48 h, read-out: Activity
SK-MEL-2 = test: Growth inhibition of human SK-MEL-2 cells assessed as cell growth at 3X10'-9 M after 48 hrs by sulforhodamine B assay; conditions: SK-MEL-2, 48 h, read-out: Activity
SF-539 [12] = test: Growth inhibition of human SF539 cells assessed as cell growth at 3X10'-9 M after 48 hrs by sulforhodamine B assay; conditions: SF-539, 48 h, read-out: Activity
HCT-15 = test: Growth inhibition of human HCT15 cells assessed as cell growth at 3X10'-9 M after 48 hrs by sulforhodamine B assay; conditions: HCT-15, 48 h, read-out: Activity
NCI-H322M = test: Growth inhibition of human NCI-H322M cells assessed as cell growth at 3X10'-9 M after 48 hrs by sulforhodamine B assay; conditions: read-out: Activity
HL-60(TB) = test: Growth inhibition of human HL-60(TB) cells assessed as cell growth at 3X10'-9 M after 48 hrs by sulforhodamine B assay; conditions: HL-60, 48 h, read-out: Activity
OVCAR-3 = test: Growth inhibition of human OVCAR3 cells assessed as cell growth at 3X10'-6 M after 48 hrs by sulforhodamine B assay; conditions: OVCAR-3, 48 h, read-out: Activity
LOX IMVI [13] = test: Growth inhibition of human LOXIMVI cells assessed as cell growth at 3X10'-6 M after 48 hrs by sulforhodamine B assay; conditions: read-out: Activity
SF-539 [14] = test: Growth inhibition of human SF539 cells assessed as cell growth at 3X10'-6 M after 48 hrs by sulforhodamine B assay; conditions: SF-539, 48 h, read-out: Activity
COLO 205 = test: Growth inhibition of human COLO205 cells assessed as cell growth at 3X10'-6 M after 48 hrs by sulforhodamine B assay; conditions: COLO 205, 48 h, read-out: Activity
NCI-H23 = test: Growth inhibition of human NCI-H23 cells assessed as cell growth at 3X10'-6 M after 48 hrs by sulforhodamine B assay; conditions: NCI-H23, 48 h, read-out: Activity
K562 = test: Growth inhibition of human K562 cells assessed as cell growth at 3X10'-6 M after 48 hrs by sulforhodamine B assay; conditions: K562, 48 h, read-out: Activity
CCRF-CEM [15] = test: Growth inhibition of human CCRF-CEM cells assessed as cell growth at 3X10'-6 M after 48 hrs by sulforhodamine B assay; conditions: read-out: Activity
RXF 393 = test: Growth inhibition of human RXF393 cells assessed as cell growth at 3X10'-7 M after 48 hrs by sulforhodamine B assay; conditions: RXF 393, 48 h, read-out: Activity
CAKI-1 [16] = test: Growth inhibition of human CAKI-1 cells assessed as cell growth at 3X10'-7 M after 48 hrs by sulforhodamine B assay; conditions: CAKI-1, 48 h, read-out: Activity
HOP-92 = test: Growth inhibition of human HOP92 cells assessed as cell growth at 3X10'-6 M after 48 hrs by sulforhodamine B assay; conditions: HOP-92, 48 h, read-out: Activity

SMILES	growth at 5 µM [1] [%]	growth at 0.3 µM (SK-OV-3 [2]) [%]	growth at 0.3 µM (LOX IMVI [3]) [%]	growth at 0.3 µM (KM12) [%]	growth at 0.3 µM (SR) [%]	growth at 0.3 µM (CCRF-CEM [4]) [%]	growth at 0.03 µM (T47D) [%]	growth at 30 µM (MDA-MB-468) [%]	growth at 0.03 µM (OVCAR-5) [%]	growth at 0.03 µM (SW-620) [%]	growth at 0.03 µM (NCI-H522) [%]	growth at 0.03 µM (RPMI-8226) [%]	growth at 0.03 µM (CCRF-CEM [5]) [%]	growth at 30 µM (CAKI-1 [6]) [%]	growth at 0.003 µM (MCF7 [8]) [%]	growth at 30 µM (MDA-MB-435) [%]	growth at 30 µM (Malme-3M) [%]	growth at 30 µM (LOX IMVI [9]) [%]	growth at 30 µM (SF-539 [10]) [%]	growth at 3 µM (BT-549) [%]	further results
COc1cc(-c2nn(-c3cccc(NC(=O)Nc4ccc(Cl)c(Cl)c4)c3)cc2-c2ccncc2)ccc1Cl	-2	–	–	–	–	–	–	–	–	–	–	–	–	–	–	–	–	–	–	–	–
COc1cc(-c2nn(-c3cccc(NC(=O)Nc4cccc(C(F)(F)F)c4)c3)cc2-c2ccncc2)ccc1Cl	-10	–	–	–	–	–	–	–	–	–	–	–	–	–	–	–	–	–	–	–	–
COc1cc(-c2nn(-c3cccc(NC(=O)c4cccc(C(F)(F)F)c4)c3)cc2-c2ccncc2)ccc1Cl	-21	–	–	–	–	–	–	–	–	–	–	–	–	–	–	–	–	–	–	–	–
COc1cc(-c2nn(-c3cccc(NC(=O)c4ccc(Cl)c(C(F)(F)F)c4)c3)cc2-c2ccncc2)ccc1Cl	–	103	86	95	82	101	96	9	96	97	94	100	102	12	93	-52	-6	16	-15	62	growth at 30 µM (SK-OV-3 [7]): 24%; growth at 3 µM (MCF7 [11]): 42%; growth at 0.003 µM (SK-MEL-2): 92%; growth at 0.003 µM (SF-539 [12]): 100%; growth at 0.003 µM (HCT-15): 99%; growth at 0.003 µM (NCI-H322M): 91%; growth at 0.003 µM (HL-60(TB)): 93%; growth at 3 µM (OVCAR-3): 43%; growth at 3 µM (LOX IMVI [13]): 39%; growth at 3 µM (SF-539 [14]): 57%; growth at 3 µM (COLO 205): 74%; growth at 3 µM (NCI-H23): 59%; growth at 3 µM (K562): 22%; growth at 3 µM (CCRF-CEM [15]): 32%; growth at 0.3 µM (RXF 393): 89%; growth at 0.3 µM (CAKI-1 [16]): 85%
O=C(Nc1cccc(-n2cc(-c3ccncc3)c(-c3ccc(Cl)c(O)c3)n2)c1)Nc1ccc(Cl)c(Cl)c1	–	98	90	90	97	90	95	-18	96	98	94	102	98	-9	97	-38	-15	-77	-34	28	growth at 3 µM (MCF7 [11]): 8%; growth at 0.003 µM (SK-MEL-2): 98%; growth at 0.003 µM (SF-539 [12]): 92%; growth at 0.003 µM (HCT-15): 102%; growth at 0.003 µM (NCI-H322M): 95%; growth at 0.003 µM (HL-60(TB)): 90%; growth at 3 µM (OVCAR-3): -1%; growth at 3 µM (LOX IMVI [13]): 3%; growth at 3 µM (SF-539 [14]): 27%; growth at 3 µM (COLO 205): 61%; growth at 3 µM (NCI-H23): 11%; growth at 3 µM (HOP-92): -26%; growth at 3 µM (K562): 16%; growth at 3 µM (CCRF-CEM [15]): 10%; growth at 0.3 µM (RXF 393): 83%; growth at 0.3 µM (CAKI-1 [16]): 88%
O=C(Nc1cccc(-n2cc(-c3ccncc3)c(-c3ccc(Cl)c(O)c3)n2)c1)Nc1cccc(C(F)(F)F)c1	–	105	97	97	100	94	95	-27	100	95	90	98	96	2	91	-19	-10	-50	-43	79	growth at 30 µM (SK-OV-3 [7]): 15%; growth at 3 µM (MCF7 [11]): 26%; growth at 0.003 µM (SK-MEL-2): 93%; growth at 0.003 µM (SF-539 [12]): 100%; growth at 0.003 µM (HCT-15): 95%; growth at 0.003 µM (NCI-H322M): 95%; growth at 0.003 µM (HL-60(TB)): 99%; growth at 3 µM (OVCAR-3): 10%; growth at 3 µM (LOX IMVI [13]): 44%; growth at 3 µM (SF-539 [14]): 54%; growth at 3 µM (COLO 205): 90%; growth at 3 µM (NCI-H23): 36%; growth at 3 µM (HOP-92): -13%; growth at 3 µM (K562): 22%; growth at 3 µM (CCRF-CEM [15]): 25%; growth at 0.3 µM (RXF 393): 88%; growth at 0.3 µM (CAKI-1 [16]): 91%
O=C(Nc1cccc(-n2cc(-c3ccncc3)c(-c3ccc(Cl)c(O)c3)n2)c1)Nc1ccc(Cl)c(C(F)(F)F)c1	–	95	87	96	81	80	103	-43	85	101	101	89	97	-25	93	-54	-70	-91	-37	12	growth at 30 µM (SK-OV-3 [7]): -11%; growth at 3 µM (MCF7 [11]): 2%; growth at 0.003 µM (SK-MEL-2): 113%; growth at 0.003 µM (SF-539 [12]): 99%; growth at 0.003 µM (HCT-15): 98%; growth at 0.003 µM (NCI-H322M): 97%; growth at 0.003 µM (HL-60(TB)): 116%; growth at 3 µM (OVCAR-3): -24%; growth at 3 µM (LOX IMVI [13]): -71%; growth at 3 µM (SF-539 [14]): -14%; growth at 3 µM (COLO 205): 42%; growth at 3 µM (NCI-H23): 1%; growth at 3 µM (HOP-92): -30%; growth at 3 µM (K562): 3%; growth at 3 µM (CCRF-CEM [15]): -7%; growth at 0.3 µM (RXF 393): 69%; growth at 0.3 µM (CAKI-1 [16]): 87%
O=C(Nc1cccc(-n2cc(-c3ccncc3)c(-c3ccc(Cl)c(O)c3)n2)c1)Nc1cc(C(F)(F)F)cc(C(F)(F)F)c1	1	–	–	–	–	–	–	–	–	–	–	–	–	–	–	–	–	–	–	–	–
O=C(Nc1cccc(-n2cc(-c3ccncc3)c(-c3ccc(Cl)c(O)c3)n2)c1)c1ccc(N2CCOCC2)c(C(F)(F)F)c1	35	–	–	–	–	–	–	–	–	–	–	–	–	–	–	–	–	–	–	–	–

— ChEMBL document CHEMBL2440076, “New triarylpyrazoles as broad-spectrum anticancer agents: design, synthesis, and biological evaluation” (Eur J Med Chem, 2013)
